Measurements taken from PMC5529566, “The cryo-EM structure of gastric H^+,K^+-ATPase with bound BYK99, a high-affinity member of K^+-competitive, imidazo[1,2-a]pyridine inhibitors” (Scientific Reports, 2017).

Key:
H^+,K^+-ATPase A125F = H^+,K^+-ATPase A125F (Sus scrofa, UniProt P19156, A126F); test: ATPase assay, A125F mutant
H^+,K^+-ATPase I126F = biological target: T1, H^+,K^+-ATPase I126F (Sus scrofa, UniProt P19156, I127F); test: ATPase assay, I126F mutant; format: biochemical, pig
T1 construct: made in house; host or cells: HEK293S GnT1- cells (BacMam baculovirus transduction); permeabilised membrane fractions
T1 sequence (P19156 whole entry I127F): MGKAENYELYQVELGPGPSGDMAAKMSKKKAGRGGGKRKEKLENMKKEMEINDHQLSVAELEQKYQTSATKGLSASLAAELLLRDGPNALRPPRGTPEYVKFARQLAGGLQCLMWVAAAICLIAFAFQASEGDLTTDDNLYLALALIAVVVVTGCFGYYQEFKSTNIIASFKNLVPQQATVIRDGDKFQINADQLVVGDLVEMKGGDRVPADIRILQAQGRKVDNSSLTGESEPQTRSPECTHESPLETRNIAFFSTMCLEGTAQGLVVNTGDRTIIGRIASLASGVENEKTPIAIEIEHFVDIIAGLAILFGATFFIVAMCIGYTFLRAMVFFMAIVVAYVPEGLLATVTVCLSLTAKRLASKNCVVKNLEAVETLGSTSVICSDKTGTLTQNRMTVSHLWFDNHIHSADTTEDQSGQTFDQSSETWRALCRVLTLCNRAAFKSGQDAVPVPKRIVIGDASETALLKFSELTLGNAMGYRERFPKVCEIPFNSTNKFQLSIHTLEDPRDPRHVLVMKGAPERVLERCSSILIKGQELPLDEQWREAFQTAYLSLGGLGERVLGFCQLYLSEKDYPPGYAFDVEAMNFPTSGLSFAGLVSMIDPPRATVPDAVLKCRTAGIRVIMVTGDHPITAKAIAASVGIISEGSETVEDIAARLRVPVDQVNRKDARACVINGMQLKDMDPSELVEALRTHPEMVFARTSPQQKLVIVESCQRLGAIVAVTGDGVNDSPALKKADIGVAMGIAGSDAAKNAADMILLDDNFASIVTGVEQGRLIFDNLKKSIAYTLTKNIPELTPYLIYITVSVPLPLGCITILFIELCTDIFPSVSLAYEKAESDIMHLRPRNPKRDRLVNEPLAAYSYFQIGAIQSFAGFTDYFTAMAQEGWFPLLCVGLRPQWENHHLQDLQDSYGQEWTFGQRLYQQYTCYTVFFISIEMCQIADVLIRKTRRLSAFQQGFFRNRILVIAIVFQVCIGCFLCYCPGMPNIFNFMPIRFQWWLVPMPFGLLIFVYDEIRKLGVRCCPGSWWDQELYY
T1 sequence (P18434 whole entry partner): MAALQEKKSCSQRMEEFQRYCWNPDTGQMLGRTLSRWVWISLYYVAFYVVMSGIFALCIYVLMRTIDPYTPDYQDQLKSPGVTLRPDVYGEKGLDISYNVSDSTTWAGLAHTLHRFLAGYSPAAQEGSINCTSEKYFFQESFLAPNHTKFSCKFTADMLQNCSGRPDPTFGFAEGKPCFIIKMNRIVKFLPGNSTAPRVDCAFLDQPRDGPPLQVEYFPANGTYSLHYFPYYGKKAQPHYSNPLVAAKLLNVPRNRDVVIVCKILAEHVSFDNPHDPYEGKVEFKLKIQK

H^+,K^+-ATPase Q127F = H^+,K^+-ATPase Q127F (Sus scrofa, UniProt P19156, Q128F); test: ATPase assay, Q127F mutant
Sequence of H^+,K^+-ATPase Q127F (P19156 whole entry Q128F): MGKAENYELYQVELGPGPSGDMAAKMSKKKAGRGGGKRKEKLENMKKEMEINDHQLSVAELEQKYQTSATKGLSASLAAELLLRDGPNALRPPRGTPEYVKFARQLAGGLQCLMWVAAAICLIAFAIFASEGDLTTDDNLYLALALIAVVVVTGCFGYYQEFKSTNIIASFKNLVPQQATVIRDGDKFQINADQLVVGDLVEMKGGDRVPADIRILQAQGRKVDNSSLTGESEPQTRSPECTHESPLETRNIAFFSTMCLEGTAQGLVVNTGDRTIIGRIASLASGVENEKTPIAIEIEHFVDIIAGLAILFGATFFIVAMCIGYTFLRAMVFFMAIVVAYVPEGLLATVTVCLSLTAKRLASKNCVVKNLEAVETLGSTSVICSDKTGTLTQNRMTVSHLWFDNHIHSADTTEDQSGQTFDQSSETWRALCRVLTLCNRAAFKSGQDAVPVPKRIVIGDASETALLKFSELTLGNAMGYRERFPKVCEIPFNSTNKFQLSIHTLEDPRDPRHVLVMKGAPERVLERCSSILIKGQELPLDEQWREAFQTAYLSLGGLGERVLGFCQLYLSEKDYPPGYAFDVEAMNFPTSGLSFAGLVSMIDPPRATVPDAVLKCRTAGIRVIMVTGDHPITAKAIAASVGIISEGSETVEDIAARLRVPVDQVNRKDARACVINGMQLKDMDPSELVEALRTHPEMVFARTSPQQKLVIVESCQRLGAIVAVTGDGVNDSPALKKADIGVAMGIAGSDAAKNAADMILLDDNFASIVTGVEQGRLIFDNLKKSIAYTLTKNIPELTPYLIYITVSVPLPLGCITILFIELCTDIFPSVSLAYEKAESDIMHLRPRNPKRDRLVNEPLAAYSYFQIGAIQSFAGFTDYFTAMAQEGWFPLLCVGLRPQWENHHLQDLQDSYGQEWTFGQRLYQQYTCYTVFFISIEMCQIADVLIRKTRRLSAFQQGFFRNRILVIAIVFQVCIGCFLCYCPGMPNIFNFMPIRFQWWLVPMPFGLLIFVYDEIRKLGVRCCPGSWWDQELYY
Sequence of H^+,K^+-ATPase Q127F (P18434 whole entry partner): as the sequence (P18434 whole entry partner) above

H^+,K^+-ATPase N138F = H^+,K^+-ATPase N138F (Sus scrofa, UniProt P19156, N139F); test: ATPase assay, N138F mutant
H^+,K^+-ATPase D137N = H^+,K^+-ATPase D137N (Sus scrofa, UniProt P19156, D138N); test: ATPase assay, D137N mutant
Sequence of H^+,K^+-ATPase D137N (P19156 whole entry D138N): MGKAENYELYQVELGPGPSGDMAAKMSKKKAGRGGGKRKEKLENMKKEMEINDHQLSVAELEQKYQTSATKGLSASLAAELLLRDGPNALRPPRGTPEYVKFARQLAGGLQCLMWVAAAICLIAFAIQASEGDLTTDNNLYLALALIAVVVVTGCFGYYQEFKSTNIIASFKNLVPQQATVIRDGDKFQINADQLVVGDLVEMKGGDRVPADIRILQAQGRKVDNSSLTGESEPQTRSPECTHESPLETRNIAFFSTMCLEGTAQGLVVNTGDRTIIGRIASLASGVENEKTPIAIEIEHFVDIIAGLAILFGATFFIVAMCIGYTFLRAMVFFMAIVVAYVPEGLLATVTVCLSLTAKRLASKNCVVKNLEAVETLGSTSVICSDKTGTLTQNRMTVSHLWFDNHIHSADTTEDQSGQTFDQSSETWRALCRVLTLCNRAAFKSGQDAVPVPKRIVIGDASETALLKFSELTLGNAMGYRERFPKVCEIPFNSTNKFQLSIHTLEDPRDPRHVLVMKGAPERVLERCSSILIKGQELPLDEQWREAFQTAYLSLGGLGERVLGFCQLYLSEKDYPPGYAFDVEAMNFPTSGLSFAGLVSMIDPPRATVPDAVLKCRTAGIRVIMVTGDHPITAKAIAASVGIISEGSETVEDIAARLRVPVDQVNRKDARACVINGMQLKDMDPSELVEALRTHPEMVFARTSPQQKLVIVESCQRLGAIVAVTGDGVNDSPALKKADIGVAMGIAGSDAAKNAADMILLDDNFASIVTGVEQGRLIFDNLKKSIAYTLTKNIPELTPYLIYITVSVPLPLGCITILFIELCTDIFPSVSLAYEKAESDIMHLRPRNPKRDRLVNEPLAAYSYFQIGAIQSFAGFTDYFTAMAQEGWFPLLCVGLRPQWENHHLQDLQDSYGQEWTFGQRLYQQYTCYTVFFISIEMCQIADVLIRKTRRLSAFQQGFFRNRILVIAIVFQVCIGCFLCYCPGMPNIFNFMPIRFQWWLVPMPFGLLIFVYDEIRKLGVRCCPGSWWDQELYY
Sequence of H^+,K^+-ATPase D137N (P18434 whole entry partner): as the sequence (P18434 whole entry partner) above

H^+,K^+-ATPase N138L = H^+,K^+-ATPase N138L (Sus scrofa, UniProt P19156, N139L); test: ATPase assay, N138L mutant
[1] = biological target: H^+,K^+-ATPase D137N/N138D (Sus scrofa, UniProt P19156, D138N/N139D); test: ATPase assay, D137N/N138D mutant
H^+,K^+-ATPase N138I = H^+,K^+-ATPase N138I (Sus scrofa, UniProt P19156, N139I); test: ATPase assay, N138I mutant
H^+,K^+-ATPase A339S = H^+,K^+-ATPase A339S (Sus scrofa, UniProt P19156, A340S); test: ATPase assay, A339S mutant
Sequence of H^+,K^+-ATPase A339S (P19156 whole entry A340S): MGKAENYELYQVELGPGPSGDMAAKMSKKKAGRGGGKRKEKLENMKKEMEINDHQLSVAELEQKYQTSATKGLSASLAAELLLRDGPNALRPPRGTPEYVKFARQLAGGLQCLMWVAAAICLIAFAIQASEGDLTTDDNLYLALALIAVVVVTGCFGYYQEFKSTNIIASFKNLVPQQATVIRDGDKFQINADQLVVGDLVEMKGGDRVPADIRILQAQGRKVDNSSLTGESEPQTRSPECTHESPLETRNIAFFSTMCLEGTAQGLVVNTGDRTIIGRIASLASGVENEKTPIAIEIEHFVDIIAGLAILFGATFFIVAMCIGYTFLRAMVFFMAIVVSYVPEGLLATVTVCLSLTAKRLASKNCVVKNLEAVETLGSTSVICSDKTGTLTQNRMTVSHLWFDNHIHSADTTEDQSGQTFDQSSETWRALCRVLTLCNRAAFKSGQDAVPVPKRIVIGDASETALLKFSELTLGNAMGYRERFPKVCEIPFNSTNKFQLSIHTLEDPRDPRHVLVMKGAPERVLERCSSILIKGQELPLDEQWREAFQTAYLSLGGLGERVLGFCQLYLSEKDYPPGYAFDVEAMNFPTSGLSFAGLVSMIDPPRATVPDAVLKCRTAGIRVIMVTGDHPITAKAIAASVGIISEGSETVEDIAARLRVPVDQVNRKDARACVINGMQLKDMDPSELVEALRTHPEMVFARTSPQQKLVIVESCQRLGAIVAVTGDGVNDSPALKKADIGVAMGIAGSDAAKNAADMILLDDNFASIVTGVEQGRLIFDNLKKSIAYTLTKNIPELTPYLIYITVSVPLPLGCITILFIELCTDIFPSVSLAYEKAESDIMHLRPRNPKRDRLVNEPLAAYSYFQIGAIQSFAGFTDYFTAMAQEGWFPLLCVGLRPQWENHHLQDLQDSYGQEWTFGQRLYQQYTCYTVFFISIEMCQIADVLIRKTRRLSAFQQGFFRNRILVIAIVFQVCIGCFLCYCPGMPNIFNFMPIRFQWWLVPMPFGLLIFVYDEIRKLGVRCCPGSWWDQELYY
Sequence of H^+,K^+-ATPase A339S (P18434 whole entry partner): as the sequence (P18434 whole entry partner) above

H^+,K^+-ATPase D137E = biological target: T2, H^+,K^+-ATPase D137E (Sus scrofa, UniProt P19156, D138E); test: ATPase assay, D137E mutant; format: biochemical, pig
T2 construct: made in house; host or cells: HEK293S GnT1- cells (BacMam baculovirus transduction), membrane fraction

H^+,K^+-ATPase V331A = H^+,K^+-ATPase V331A (Sus scrofa, UniProt P19156, V332A); test: ATPase assay, V331A mutant
H^+,K^+-ATPase D136I = H^+,K^+-ATPase D136I (Sus scrofa, UniProt P19156, D137I); test: ATPase assay, D136I mutant
H^+,K^+-ATPase A125S = H^+,K^+-ATPase A125S (Sus scrofa, UniProt P19156, A126S); test: ATPase assay, A125S mutant
H^+,K^+-ATPase I126A = biological target: T3, H^+,K^+-ATPase I126A (Sus scrofa, UniProt P19156, I127A); test: ATPase assay, I126A mutant; format: biochemical, pig
T3 construct: made in house; host or cells: HEK293S GnT1- cells (BacMam baculovirus transduction); permeabilised membrane fractions

H^+,K^+-ATPase WT = biological target: T4, H^+,K^+-ATPase WT (Sus scrofa, UniProt P19156); test: K^+-competitive inhibition of H^+,K^+-ATPase activity, 96-well ATPase assay, wild-type; format: biochemical, pig; conditions: WT
T4 construct: made in house; host or cells: HEK293S GnT1- cells (BacMam baculovirus transduction); permeabilised membrane fractions

H^+,K^+-ATPase Y799A = H^+,K^+-ATPase Y799A (Sus scrofa, UniProt P19156, Y800A); test: ATPase assay, Y799A mutant
H^+,K^+-ATPase D137I = H^+,K^+-ATPase D137I (Sus scrofa, UniProt P19156, D138I); test: ATPase assay, D137I mutant
H^+,K^+-ATPase D136F = H^+,K^+-ATPase D136F (Sus scrofa, UniProt P19156, D137F); test: ATPase assay, D136F mutant
[2] = biological target: H^+,K^+-ATPase A335C/C813A (Sus scrofa, UniProt P19156, A336C/C814A); test: ATPase assay, A335C/C813A mutant
H^+,K^+-ATPase = H^+,K^+-ATPase (Sus scrofa, UniProt P19156); test: Dose-dependent inhibition of H^+,K^+-ATPase activity in the presence of 10 mM KCl

In the case of Cc1nc2c3c(ccn2c1C)[C@@H](O)[C@H](O)[C@@H](c1ccccc1)N3 [BYK99], the Ki (H^+,K^+-ATPase A125F) is reported as 12 ± 1 nM, the “-fold increase in K i compared with wild-type” value (from here on “-fold increase in K i”) (H^+,K^+-ATPase A125F; A125F) is reported as 2.1 fold and the “-fold increase in K i” value (H^+,K^+-ATPase I126F; I126F) is reported as 4.1 fold. The Ki (H^+,K^+-ATPase I126F; I126F (M1), high H^+-ATPase activity, K i determined by K m/V max plot) was 24 ± 15 nM, the Ki (H^+,K^+-ATPase Q127F) was 41 ± 7 nM and the “-fold increase in K i” value (H^+,K^+-ATPase Q127F; Q127F) was 7.1 fold. The Ki (H^+,K^+-ATPase N138F) was 7700 ± 1200 nM, the “-fold increase in K i” value (H^+,K^+-ATPase N138F; N138F) was 1300 fold and the Ki (H^+,K^+-ATPase D137N) was 450 ± 100 nM. For the same molecule, the “-fold increase in K i” value (H^+,K^+-ATPase D137N; D137N) was 78 fold, the “fold lower affinity than WT” value (H^+,K^+-ATPase D137N; D137N vs WT) was “more than 60 fold” and the Ki (H^+,K^+-ATPase N138L) was 1300 ± 500 nM. The “-fold increase in K i” value (H^+,K^+-ATPase N138L; N138L) was 220 fold, the Ki [1] was 110 ± 10 nM and the “-fold increase in K i” value ([1]; D137N/N138D) was 19 fold. For the same molecule, the Ki (H^+,K^+-ATPase N138I) was 34 ± 8 nM, the “-fold increase in K i” value (H^+,K^+-ATPase N138I; N138I) was 5.9 fold and the Ki (H^+,K^+-ATPase A339S) was 21 ± 1 nM. For the same molecule, the “-fold increase in K i” value (H^+,K^+-ATPase A339S; A339S) was 3.6 fold, the “-fold increase in K i” value (H^+,K^+-ATPase D137E) was 9.8 fold and the Ki (H^+,K^+-ATPase D137E; high H^+-ATPase activity, K i' determined by K m/V max plot) was 57 ± 16 nM. The Ki (H^+,K^+-ATPase V331A) was 47 ± 3 nM, the “-fold increase in K i” value (H^+,K^+-ATPase V331A; V331A) was 8.1 fold and the Ki (H^+,K^+-ATPase D136I) was 15 ± 2 nM. The “-fold increase in K i” value (H^+,K^+-ATPase D136I; D136I) was 2.6 fold, the Ki (H^+,K^+-ATPase A125S) was 27 ± 2 nM and the “-fold increase in K i” value (H^+,K^+-ATPase A125S; A125S) was 4.6 fold. For the same molecule, the “-fold increase in K i” value (H^+,K^+-ATPase I126A; I126A) was 19 fold, the Ki (H^+,K^+-ATPase I126A; I126A (M1), high H^+-ATPase activity, K i determined by K m/V max plot) was 110 ± 50 nM and the “-fold increase in K i” value (H^+,K^+-ATPase WT) was 1.0 fold. The Ki (H^+,K^+-ATPase WT; global fitting, mean ± SEM) was 5.8 ± 0.6 nM, the Ki (H^+,K^+-ATPase Y799A) was > 1000 nM and the “-fold increase in K i” value (H^+,K^+-ATPase Y799A; Y799A) was > 170 fold. For the same molecule, the Ki (H^+,K^+-ATPase D137I) was 62 ± 15 nM, the “-fold increase in K i” value (H^+,K^+-ATPase D137I; D137I) was 11 fold and the Ki (H^+,K^+-ATPase D136F) was 5.9 ± 0.7 nM. The “-fold increase in K i” value (H^+,K^+-ATPase D136F; D136F) was 1.0 fold, the Ki [2] was > 1000 nM and the “-fold increase in K i” value ([2]; A335C/C813A) was > 170 fold. The IC50 (H^+,K^+-ATPase) was 77 nM.
